In US12435315B2, “Generating dorsal foregut, and anterior domain, endoderm cells” (The Cleveland Clinic Foundation, priority 2019, dated 2025):

How the values were obtained:
Assay type in all cases: cell-based, human
pluripotent stem cells [1] = assay: DoE/ISPA of biologically active retinoids for HNF1β induction (DFE induction); details: retinoid DoE; 13-cis and all trans stated to contribute negatively
Description: (§1) All DoE experimental designs were computer generated using D-optimal interaction designs in MODDE software (Sartorius Stedim Data Analytical Solutions, SSDAS). Perturbation matrixes were generated (96 independent experimental runs) on a Freedom Evol50 liquid handling robot (TECAN, CH). Each DoE differentiation experiment used a 3-day application of perturbation matrixes with daily media replacements. All cell culture, including manual preparatory expansion and seeding as well as any robotic manipulations were contained in a modular X-Vivo system (Biospherix, NY, USA) providing Process Analytical Technology (PAT) of the cell culture conditions (affording % N2, % O2, % CO2, and temperature control and monitoring at any point in the experimental process). End-point data collection was performed using an Open Array RT-QPCR method (QuantStudio, Life Technologies, 53 genes/sample/card). QuantStudio gene expression data were normalized within Expression Suite™ (Life Tech), standardized, and exported to MODDE. Mathematical modeling of the differentiation space was performed in MODDE using PLS maximizing the explained variance and subsequently gene-specific models were tuned by Q2 maximization. Fitted model optimized conditions for response maximization or minimization were extracted using the software predictive tools ‘optimizer’ and ‘dynamic profile’ analysis. Virtual experiments were performed in the known space covered by the experimental design, addressing pathway relative contributions to the desired parameters.
Samples were loaded onto a custom design Quant Studio Card using an OpenArray AccuFill System (Life Technologies 4471021) and ran on a QuantStudio 12k Flex Real-Time PCR System (Life Technologies 4471090). The QuantStudio Open Array analysis provided expression information of 53 chosen genes per open array configuration. […] Initial designs included genes responding to all major sub-lineage fates downstream of pluripotency, while the later design focused more on endodermal lineages with an emphasis on pancreatic fates. […]

pluripotent cultures [2] = assay: DoE/ISPA modeling of endodermal gene induction from pluripotency (3-day perturbation matrix, OpenArray RT-QPCR); details: ISPA prediction; for factor contribution (FC) for FOXA2 expression / factor contribution (FC) for HNF1β expression / factor contribution (FC) for MNX1 expression: pluripotent cultures
Experimental: Pluripotent cultures were adapted to Essential 8 media (Gibco A15169-01) and grown on vitronectin (Gibco A14700) coated plates (Corning Inc. 3598). Differentiation experiments were seeded at 75,000 cells per cm^2 and maintained in E8 medium for 48 hours until cultures were approximately 90% confluent before initiating differentiation. All growth factors and small molecules were reconstituted according to supplier's recommendations and aliquots were stored at −80° C. for up to a year. Growth medium was changed daily and with the exception of the DE protocol the basal medium used in all differentiation experiments was CDM2 (Loh et al., 2014). The APS^Opt was composed of 250 nM LDN3189 (Sellekchem S2618), 50 ng/ml Activin A (Peprotech 120-14), 20 ng/ml bFGF (Gibco 13256029), 100 nM Sant1 (Sellekchem S7092). The HNF1β^Opt was supplemented with 250 nM LDN3189, 500 nM A8301 (Biogems 4463325), 12.6 ng/ml Wnt3a (R&D 5036WN/CF), 25 ng/ml bFGF, 250 nM PD0325 (Selleckchme S1036), 40 ng/ml SHH (Peprotech 100-45) and 2 uM retinoic acid (Sigma Aldrich R2625). DE was generated using conditions previously described (Rezania et al., 2014, D'Amour et al., 2005). The PDX1^Opt was composed of 500 nM A8301, 250 nM LDN3189, 100 nM Sant1, 250 nM PD0325, 2 uM retinoic acid and 1% B27 supplement (Gibco 12587) and with the exception of where it is stated differently in the text was used for 3 sequential days on differentiating cells. Endocrine push medium was supplemented with 100 nM gamma-secretase inhibitor XX (EMD Millipore 565789) and 500 nM A8301. Stomach organoids were generated using a modified protocol (McCracken et al., 2014). Briefly HNF1β^Opt cultures were incubated for three days with a stage 2 medium supplemented with 500 ng/ml Wnt3a, 500 ng/ml FGF4 (R&D 7460-F4), 250 nM LDN3189 and 2 uM retinoic acid (RA first day only). Cultures were passaged 1:6 with seeding occurring in a 1:4 Matrigel (Fisher Scientific 354230)/CDM2 mixture and incubated for 30 minutes at 37° C. before a three day application of stage 3 medium composed of 2 uM retinoic acid, 250 nM LDN3189 and 100 ng/ml EGF (R&D 236-EG). Cultures were then supplemented with a stage 4 medium supplemented with 100 ng/ml EGF for 23 days before organoids were recovered and fixed for sectioning.
as §1
RNA extractions for modeling analysis were performed using a MagMax-96 Total RNA Isolation Kit (Life Technologies AM1830) and performed according to manufacturer's protocol. […]

pluripotent stem cells [3] = assay: Immunostaining and high content imaging of DFE markers (conversion efficiency); details: immunostaining of DFE markers, compared with HNF1β^Opt / RA
Experimental: Histological characterization occurred by treating cell cultures with 4% paraformaldehyde (EMD 30525-89-4) solution at ambient temperature for 15 minutes. Samples were then blocked and permeabilized using 0.1M Tris/HCl (Promega H5123) pH 7.5 supplemented with 0.5% blocking reagent (Perkin Elmer FP1012) and 0.1% TrintonX-100 (Fisher Scientific BP151) for 1 hour. All antibody solutions were diluted in 0.1M Tris/HCl (Promega H5123) pH 7.5 and primary antibodies were incubated over-night while secondary antibodies were incubated for an hour. All incubations occurred at ambient temperature. Cultures were treated with a 1:2 dilution of Vectashield mounting medium (Vector Laboratories H-1200).
To further validate the induction conditions for DFE markers, immunostaining was performed, followed by high content imaging to assess conversion efficiency.

[4] = system: DFE-derived endocrine cultures; assay: Glucose stimulated insulin release assay (GSIS), C-peptide ELISA; details: 30 mM KCl, 30 minute incubation, versus 2 mM glucose basal
Experimental: GSIS assays were performed by incubating cells in Krebs-Ringer buffer supplemented with 2 mM glucose for 30 minutes for determination of basal C-peptide levels. This was followed by changing reaction buffer to a Krebs Ringer buffer either supplemented with 20 mM glucose or 30 mM KCl for an additional 30 minute incubation. Buffer samples were collected and C-Peptide levels were quantified using ELISA (Mercodia 10-1141-01) according to manufacturer's protocol. Microfludic assays were performed as previously described (Adewola et al., 2010, Wang et al., 2012).

DFE culture = assay: Sequential DoE/ISPA modelling on DFE culture, maximizing SOX2, OSR1 or PDX1 expression; details: ISPA; for factor contribution (FC) for PDX1 (pancreatic) activation: PDX1^Opt
Description: Since we observed that the DFE cultures were competent for both stomach and pancreas induction we next evaluated this bi-potential nature through a sequential DoE modelling experiment performed on the DFE culture.
Results from ISPA maximization of the expression of SOX2, OSR1 or PDX1 were compared (FIGS. 4A & B).
Pluripotent cultures were adapted to Essential 8 media (Gibco A15169-01) and grown on vitronectin (Gibco A14700) coated plates (Corning Inc. 3598). Differentiation experiments were seeded at 75,000 cells per cm^2 and maintained in E8 medium for 48 hours until cultures were approximately 90% confluent before initiating differentiation. All growth factors and small molecules were reconstituted according to supplier's recommendations and aliquots were stored at −80° C. for up to a year. Growth medium was changed daily and with the exception of the DE protocol the basal medium used in all differentiation experiments was CDM2 (Loh et al., 2014). The APS^Opt was composed of 250 nM LDN3189 (Sellekchem S2618), 50 ng/ml Activin A (Peprotech 120-14), 20 ng/ml bFGF (Gibco 13256029), 100 nM Sant1 (Sellekchem S7092). The HNF1β^Opt was supplemented with 250 nM LDN3189, 500 nM A8301 (Biogems 4463325), 12.6 ng/ml Wnt3a (R&D 5036WN/CF), 25 ng/ml bFGF, 250 nM PD0325 (Selleckchme S1036), 40 ng/ml SHH (Peprotech 100-45) and 2 uM retinoic acid (Sigma Aldrich R2625). […] The PDX1^Opt was composed of 500 nM A8301, 250 nM LDN3189, 100 nM Sant1, 250 nM PD0325, 2 uM retinoic acid and 1% B27 supplement (Gibco 12587) and with the exception of where it is stated differently in the text was used for 3 sequential days on differentiating cells.

pluripotent cultures [5] = assay: HD-DoE gastrulation modeling, normalized effector factor contributions for endodermal genes; details: ISPA
Description: as §1, with “Virtual experiments were performed in the known space covered by the experimental design, addressing pathway relative contributions to the desired parameters.” left out
To better understand how the in vitro produced endodermal populations being studied are patterned we next performed a follow-up DoE-based gastrulation modeling experiment (FIG. 16A). ISPA optimizing for all the individual endoderm genes measured were then subjected to a cluster analysis using Seurat R package (FIG. 16B). […]
HD-DoE designs incorporating Activin A (AA), BMP4, NODAL, retinoic acid and respective inhibitors were used on pluripotent cultures and key endodermal genes were monitored (FIG. 16). Resulting data was imported into analysis software and computer models predicting optimal culture conditions for activating all genes monitored were clustered (FIG. 19B). […]

For `CC1=C(/C=C/C(C)=C/C=C/C(C)=C/C(=O)O)C(C)(C)CCC1=O` [4-oxo-retinoic acid], the “factor contribution (FC) to HNF1β induction” value (pluripotent stem cells [1]) was 13.21.

`CC1=C(/C=C/C(C)=C/C=C/C(C)=C\C(=O)O)C(C)(C)CCC1` [13-cis retinoic acid] was tested, and the “factor contribution (FC) to HNF1β induction” value (pluripotent stem cells [1]) was 24.1609.

With `Cc1cccc(-c2nn(C(=S)Nc3ccccc3)cc2-c2ccnc3ccccc23)n1` [Alk5i, A8301] the “factor contribution (FC) for FOXA2 expression” value (pluripotent cultures [2]) was 8.88, the “factor contribution (FC) for HNF1β expression” value (pluripotent cultures [2]) was 7.59 and the “factor contribution (FC) for MNX1 expression” value (pluripotent cultures [2]) was 18.98.

In the case of `c1ccc2c(-c3cnn4cc(-c5ccc(N6CCNCC6)cc5)cnc34)ccnc2c1` [BMPi, LDN193189], the “factor contribution (FC) for FOXA2 expression” value (pluripotent cultures [2]) is reported as 25.3, the “factor contribution (FC) for HNF1β expression” value (pluripotent cultures [2]) is reported as 31.7 and the “factor contribution (FC) for MNX1 expression” value (pluripotent cultures [2]) is reported as 30.5.

With `CC1(C)CCC(C)(C)c2cc(C#Cc3ccc(C(=O)O)cc3)ccc21` [EC23] the “effectiveness of DFE induction by alternative retinoic acid pathway agonists” value (pluripotent stem cells [3]) was “operates equivalently to RA”.

In the case of `[Cl-].[K+]` [KCl], the “increase in detectable C-peptide levels” value [4] is reported as 4 fold.

With `O=C(NOC[C@H](O)CO)c1ccc(F)c(F)c1Nc1ccc(I)cc1F` [PD0325901] the “factor contribution (FC) for PDX1 (pancreatic) activation” value (DFE culture) was 29.62.

For `CC1=C(/C=C/C(C)=C/C=C/C(C)=C/C(=O)O)C(C)(C)CCC1` [RA, retinoic acid], the “factor contribution (FC) for OSR1 (gastric) activation” value (DFE culture) was 30.68, the “factor contribution (FC) for SOX2 expression” value (DFE culture) was −28.59 and the “factor contribution (FC) for PDX1 (pancreatic) activation” value (DFE culture) was 31.38. For the same molecule, the “factor contribution (FC) to HNF1β induction” value (pluripotent stem cells [1]) was 2.773, the “factor contribution (FC) for FOXA2 expression” value (pluripotent cultures [2]) was 24.8 and the “factor contribution (FC) for HNF1β expression” value (pluripotent cultures [2]) was 30.1. The “factor contribution (FC) for MNX1 expression” value (pluripotent cultures [2]) was 22.7.

For SHH, the “factor contribution (FC) for SOX2 expression” value (DFE culture) was 29.58.

B1: Activin A (protein, UniProt P08476 311-426, looked up)
Inhibin beta A chain: GLECDGKVNICCKKQFFVSFKDIGWNDWIIAPSGYHANYCEGECPSHIAGTSGSSLSFHSTVINHYRMRGHSPFANLKSCCVPTKLRPMSMLYYDDGQNIIKKDIQNMIVEECGCS
modifications: Inhibin beta A chain
notes: TGFβ pathway agonist used as a Nodal mimic
B1 was tested, and the “contribution to activating retinoic acid/BMP inhibition-dependent endoderm genes” value (pluripotent cultures [2]; FOXA2, HNF1β, MNX1 etc.) was “no contribution”, the “factor contribution (FC) to anterior primitive streak (APS) gene induction” value (pluripotent cultures [2]; maximal MESP1, EOMES, BRACHYURY/T, minimal EVX1) was 18.85 and the “normalized factor contribution for OSR1 activation” value (pluripotent cultures [5]) was −1.0. For the same molecule, the “normalized factor contribution for PAX9 activation” value (pluripotent cultures [5]) was −0.85 and the “normalized factor contribution for TBX1 activation” value (pluripotent cultures [5]) was −0.59.

B2: FGF4 (protein, UniProt P08620 31-206, looked up)
Fibroblast growth factor 4: APTAPNGTLEAELERRWESLVALSLARLPVAAQPKEAAVQSGAGDYLLGIKRLRRLYCNVGIGFHLQALPDGRIGGAHADTRDSLLELSPVERGVVSIFGVASRFFVAMSSKGKLYGSPFFTDECTFKEILLPNNYNAYESYKYPGMFIALSKNGKTKKGNRVSPTMKVTHFLPRL
notes: FGF signaling growth factor (R&D 7460-F4)
B2 was tested, and the “factor contribution (FC) for OSR1 (gastric) activation” value (DFE culture) was 13.45.
